The numbers were not newly measured in patent EP0266549A1, “Cinnamyl amines, process for their preparation and pharmaceutical compositions containing them” (BOEHRINGER MANNHEIM ITALIA S.P.A., priority 1986, dated 1988), which cites them from elsewhere.

Structures can show the parent of a compound that is named as a salt.

The conditions of the data set: in vitro; Arch. lnt. Pharmacology, 272, 283, 1984; cited from earlier work.

Take `Fc1ccc(C(c2ccc(F)cc2)N2CCN(C/C=C/c3ccccc3)CC2)cc1` [Flunarizine HCl]: the “activity as "radical scavenger"” value is “very active”.
